Assay results: patent publication US20040228804A1, “Nasal administration of xylitol to a non-human mammal” (priority 2003, published 2004)

How the values were obtained:
pathogenic bacteria = conditions: several pathogenic bacteria exposed to xylitol; cited from earlier work
[1] = saturated solution of xylitol (maximum strength); format: physicochemical; conditions: saline or water based solution
Description: (§1) Embodiments of the present invention are directed to treating cattle with xylitol in solution in order to reduce or prevent shipping fever, and/or ailments associated with close quartering of cattle. The solution may be a saline based solution for some embodiments, but the solution may also have just a water base. A maximum strength may be a saturated solution comprising approximately of 64 grams of xylitol per 100 cubic centimeters (cc's) of solution. The inventor has yet to determine a precise lower limit of xylitol that would be effective, but as little as 1% xylitol in solution has shown to be effective. It should be understood however, that a 1% xylitol in solution should not be construed as a lower limit of effectiveness; rather, this is only the lower limit of tested effectiveness. Smaller percentages of the xylitol in solution may likewise be effective, and thus their use would be within the scope and spirit of the invention.

shipping fever = experiment: treating cattle with xylitol in solution to reduce or prevent shipping fever; format: in vivo; conditions: 1% xylitol in solution; lower limit of tested effectiveness
Description: as §1
The precise mode of application of the xylitol in solution may vary substantially. In at least some embodiments, nostrils of the cattle may be treated directly prior to close quartering, such as shipping. In particular, in these embodiments the xylitol in solution be applied to each nostril of each animal in the form of a mist (nebulized), which application preferably takes place for approximately two respiratory cycles of the animal for each nostril. […]

saturated solution, xylitol per 100 cubic centimeters of solution [1]: ~64 grams per 100 cubic centimeter
SMILES: OC[C@@H](O)[C@H](O)[C@@H](O)CO [xylitol]
adherence of bacteria to their environment (pathogenic bacteria): less adherent | effectiveness of xylitol in solution (shipping fever): effective
